We go through 9 compounds from the SangsterLogP compilation.

This data set in a line: method code SF-AS, from DOI: 10.1016/s0021-9673(00)82338-9. As to conditions: pH 9.0.
`O=[N+]([O-])c1cncn1CCN1CCOCC1` returned a logD of 0.07.

`CN1CCN(Cc2ncc([N+](=O)[O-])n2C)CC1`: the logD was -0.32.

With `Cn1c([N+](=O)[O-])cnc1COC(N)=O`, the logD is -0.38.

Consider `Cn1c([N+](=O)[O-])cnc1C=O`, for which the logD is -0.69.

On to `O=[N+]([O-])c1cnc(C=Cc2ccc3c(c2)OCO3)n1CCO`, for which the logD is 2.03.

Take `Cn1c([N+](=O)[O-])cnc1CO`: the logD is -0.03.

As to `Cc1ncc([N+](=O)[O-])n1CC(=O)N1C=CN(C(=O)Cn2c([N+](=O)[O-])cnc2C)C=C1`, the logD was -0.7.

`Cc1ncc([N+](=O)[O-])n1CC(O)Cn1c([N+](=O)[O-])cnc1C` gave a logD of 0.31.

Consider `Cn1c([N+](=O)[O-])cnc1C1CC1`, for which the logD came out at 1.

In general, logD refers to the decadic logarithm of the distribution of all forms, ionised or not, between an organic phase and buffer at a given pH. A lower logD goes with a more hydrophilic compound.
